Data published in the supplement of paper PMC10307832.

Columns and labels:
Assay in all cases: relative viability (nuclei count vs DMSO), 5 days (fraction); higher = more cells survive
Dactolisib + Phenformin = compound: Cn1c(=O)n(-c2ccc(C(C)(C)C#N)cc2)c2c3cc(-c4cnc5ccccc5c4)ccc3ncc21 [Dactolisib] + N=C(N)NC(=N)NCCc1ccccc1 [Phenformin] (partner 250 µM)
How it was run: (§1)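 Medians of duplicate plates are given as relative viability. That measure is the nuclei count in treated wells divided by the count in vehicle wells. Counts were taken on 4× images of lung cancer cell lines in 1536-well plates, 5 days after pin-tool dosing the day after seeding with one drug alone or a fixed anchor-drug dose plus five library-drug doses (not always all listed) in √10 steps.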

AZ505 + Dasatinib = compound: C1CCC(CC1)N(CCNCCC2=C3C(=C(C=C2)O)NC(=O)CO3)C(=O)CCNCCC4=CC(=C(C=C4)Cl)Cl [AZ505] + Cc1nc(Nc2ncc(C(=O)Nc3c(C)cccc3Cl)s2)cc(N2CCN(CCO)CC2)n1 [Dasatinib] (partner 0.075 µM)
How it was run: as §1

Dactolisib + Foretinib = compound: Cn1c(=O)n(-c2ccc(C(C)(C)C#N)cc2)c2c3cc(-c4cnc5ccccc5c4)ccc3ncc21 [Dactolisib] + COc1cc2c(Oc3ccc(NC(=O)C4(C(=O)Nc5ccc(F)cc5)CC4)cc3F)ccnc2cc1OCCCN1CCOCC1 [Foretinib] (partner 0.25 µM)
How it was run: as §1

AZ505 + Alpelisib = compound: C1CCC(CC1)N(CCNCCC2=C3C(=C(C=C2)O)NC(=O)CO3)C(=O)CCNCCC4=CC(=C(C=C4)Cl)Cl [AZ505] + Cc1nc(NC(=O)N2CCC[C@H]2C(N)=O)sc1-c1ccnc(C(C)(C)C(F)(F)F)c1 [Alpelisib] (partner 2 µM)
How it was run: as §1

Row | Cell Line | relative viability (Dactolisib + Phenformin; first compound 0.002 µM) | relative viability (Dactolisib + Phenformin; first compound 0.006325 µM) | relative viability (Dactolisib + Phenformin; first compound 0.02 µM) | relative viability (Dactolisib + Phenformin; first compound 0.06325 µM) | relative viability (Dactolisib + Phenformin; first compound 0.2 µM) | relative viability (AZ505 + Dasatinib; first compound 0.08 µM) | relative viability (AZ505 + Dasatinib; first compound 0.253 µM) | relative viability (AZ505 + Dasatinib; first compound 0.8 µM) | relative viability (AZ505 + Dasatinib; first compound 2.53 µM) | relative viability (AZ505 + Dasatinib; first compound 8 µM) | relative viability (Dactolisib + Foretinib; first compound 0.002 µM) | relative viability (Dactolisib + Foretinib; first compound 0.006325 µM) | relative viability (Dactolisib + Foretinib; first compound 0.02 µM) | relative viability (Dactolisib + Foretinib; first compound 0.06325 µM) | relative viability (Dactolisib + Foretinib; first compound 0.2 µM) | relative viability (AZ505 + Alpelisib; first compound 0.253 µM) | relative viability (AZ505 + Alpelisib; first compound 0.8 µM) | relative viability (AZ505 + Alpelisib; first compound 2.53 µM) | relative viability (AZ505 + Alpelisib; first compound 8 µM) | relative viability (AZ505 + Alpelisib; first compound 0.08 µM)
1 | HCC-78 | 0.912 | 0.771 | 0.63 | 0.495 | 0.319 | 0.336 | 0.411 | 0.333 | 0.445 | 0.425 | 0.629 | 0.589 | 0.451 | 0.376 | 0.338 | 0.515 | 0.306 | 0.411 | 0.462 | 
2 | HCC-366 | 0.602 | 0.625 | 0.587 | 0.397 | 0.151 | 0.604 | 0.625 | 0.78 | 0.527 | 0.608 | 0.914 | 0.986 | 0.955 | 0.94 | 0.368 | 0.379 | 0.326 | 0.411 | 0.385 | 0.306
3 | HCC-827 | 0.394 | 0.392 | 0.396 | 0.382 | 0.393 | 0.399 | 0.35 | 0.385 | 0.313 | 0.407 | 0.995 | 1.04 | 0.913 | 0.815 | 0.283 | 0.997 | 0.87 | 0.947 | 1.06 | 0.921
4 | HOP-62 | 0.736 | 0.654 | 0.655 | 0.405 | 0.356 | 0.528 | 0.644 | 0.484 | 0.598 | 0.64 | 1.26 | 1.1 | 0.974 | 0.747 | 0.516 | 1.17 | 0.889 | 0.844 | 1.04 | 0.94
5 | IA-LM |  |  |  |  |  |  |  |  |  |  | 1.28 | 1.07 | 0.837 | 0.497 | 0.453 | 1.05 | 0.925 | 0.723 | 1 | 0.793
6 | LC-2-ad | 0.601 | 0.572 | 0.539 | 0.42 | 0.391 | 0.578 | 0.564 | 0.558 | 0.604 | 0.665 | 1.08 | 0.917 | 0.839 | 0.545 | 0.551 | 0.797 | 0.832 | 0.957 | 0.877 | 0.774
7 | LCLC-97TM1 | 0.452 | 0.444 | 0.42 | 0.317 | 0.179 | 0.77 | 0.795 | 0.767 | 0.674 | 0.88 | 1.05 | 0.923 | 0.688 | 0.668 | 0.367 | 0.333 | 0.26 | 0.247 | 0.363 | 0.327
8 | LCLC-103H | 0.369 | 0.321 | 0.345 | 0.317 | 0.291 | 0.407 | 0.415 | 0.393 | 0.481 | 0.451 | 1.05 | 0.763 | 0.654 | 0.517 | 0.303 | 0.818 | 0.977 | 0.848 | 0.957 | 0.853
9 | LK-2 | 0.297 | 0.324 | 0.248 | 0.146 | 0.114 | 0.254 | 0.327 | 0.415 | 0.431 | 0.366 | 1.19 | 0.997 | 0.766 | 0.444 | 0.196 | 0.923 | 1.29 | 1.13 | 1.16 | 0.968
10 | LOU-NH91 | 0.625 | 0.731 | 0.642 | 0.437 | 0.447 | 0.536 | 0.537 | 0.452 | 0.53 | 0.601 | 0.897 | 0.921 | 0.9 | 0.658 | 0.548 | 0.636 | 0.611 | 0.631 | 0.742 | 0.622
11 | LU99A | 0.871 | 0.761 | 0.682 | 0.443 | 0.258 |  | 0.475 | 0.618 | 0.48 | 0.536 | 0.742 | 0.75 | 0.582 | 0.386 | 0.312 | 0.519 | 0.618 | 0.478 | 0.493 | 0.55
12 | NCI-H522 | 0.591 | 0.647 | 0.548 | 0.535 | 0.631 | 0.923 | 0.843 | 0.801 | 0.877 | 0.948 |  |  |  |  |  |  |  |  |  | 
13 | NCI-H1299 |  |  |  |  |  |  |  |  |  |  | 1.09 | 1.1 | 1.11 | 0.982 | 1.06 | 1.06 | 1.01 | 0.978 | 0.998 | 0.986
14 | NCI-H1623 | 0.618 | 0.628 | 0.561 | 0.585 | 0.438 | 0.488 | 0.466 | 0.598 | 0.479 | 0.612 | 0.907 | 0.882 | 0.768 | 0.596 | 0.418 |  |  |  |  | 
15 | NCI-H1650 | 0.355 | 0.41 | 0.454 | 0.267 | 0.232 | 0.298 | 0.281 | 0.37 | 0.321 | 0.295 | 1.08 | 1.05 | 0.919 | 0.781 | 0.531 |  |  |  |  | 
16 | NCI-H1703 |  |  |  |  |  |  |  |  |  |  |  | 0.389 | 0.381 | 0.281 | 0.325 | 0.372 | 0.414 | 0.341 | 0.369 | 0.292
17 | NCI-H1792 | 0.249 | 0.172 | 0.262 | 0.101 | 0.0814 | 0.734 |  | 0.697 | 0.69 | 0.684 |  |  |  |  |  | 0.769 | 0.66 | 0.701 | 0.642 | 0.719
18 | NCI-H2342 | 0.492 | 0.64 | 0.54 | 0.559 | 0.525 | 0.312 | 0.317 | 0.316 | 0.346 | 0.351 | 1.1 | 0.96 | 0.855 | 0.679 | 0.525 |  |  |  |  | 
19 | SW 900 | 0.67 | 0.536 | 0.591 | 0.288 | 0.198 | 0.584 | 0.458 | 0.54 | 0.919 | 0.658 | 1.03 | 0.828 | 0.832 | 0.576 | 0.3 |  |  |  |  | 
